This is an account of results in US20240238313A1, “DOSING OF CV-10155 IN THE EVENING OR PRIOR TO SLEEP TO TREAT GABAA DISORDERS” (priority 2021, published 2024).

Usually Tmax stands for the time at which the peak concentration occurs.

Data set [1] deals with α4β3δ GABAA receptors (extra synaptic) (Homo sapiens, UniProt P28472+P48169). The following applies: compositions containing isomerically pure compound; described in U.S. Pat. No. 10,857,163; cited from earlier work.
The conditions of data set [2]: humans, single oral dose, range of 5-135 mg.
For data set [3] the following is noted: human, in vivo, 60 mg.
Data set [4] in a line: 60 mg CV-10155 orally once per day for seven days in humans (MAD): PK and adverse events.
A further data set concerns Forced swim test. Nature of the data set: Forced swim test - Depression. More on the design: species or system rodent. The following applies: in vivo.
For data set [5] the following is noted: cited from earlier work.
Setting [6] is: 10 mg in HPMC-AS formulation PO, fed cohort, individual dogs #9-12 and mean (r14).
Setting [7] is: 10 mg in HPMC-AS formulation PO, pentagastrin/fasted cohort, individual dogs #1-4 and mean (r14).
Where [8] appears, read: 30 mg in HPMC-AS formulation PO, pentagastrin/fasted cohort, individual dogs #13-16 and mean (r14).
[9] abbreviates: 60 mg, evening, fed state, N = 9.
Where [10] appears, read: 60 mg, morning, fasted state, N = 9.

Values joined by “and” are separate entries in the source; they are usually repeats but may differ in a detail not shown here. Identical values can stand only once. “Also recorded” adds a separate entry of the source. Like-named read-outs stand apart in the source and are kept apart here.

α4β3δ GABAA receptors (extra synaptic), sequence (P48169 36-554): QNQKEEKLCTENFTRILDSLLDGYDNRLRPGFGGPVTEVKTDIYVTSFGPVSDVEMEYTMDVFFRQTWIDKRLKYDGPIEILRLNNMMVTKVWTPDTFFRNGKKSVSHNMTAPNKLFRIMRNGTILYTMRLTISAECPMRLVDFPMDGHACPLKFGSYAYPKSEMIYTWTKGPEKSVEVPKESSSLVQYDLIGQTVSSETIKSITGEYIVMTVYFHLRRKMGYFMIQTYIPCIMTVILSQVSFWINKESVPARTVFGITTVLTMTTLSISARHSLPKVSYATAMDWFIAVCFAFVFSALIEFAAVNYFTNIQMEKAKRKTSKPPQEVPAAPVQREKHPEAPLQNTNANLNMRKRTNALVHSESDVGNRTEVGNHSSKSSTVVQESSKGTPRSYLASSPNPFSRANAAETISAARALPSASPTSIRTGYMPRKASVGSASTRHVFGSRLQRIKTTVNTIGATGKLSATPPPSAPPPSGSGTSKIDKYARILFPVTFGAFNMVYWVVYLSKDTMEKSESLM
α4β3δ GABAA receptors (extra synaptic), sequence (P28472 26-473): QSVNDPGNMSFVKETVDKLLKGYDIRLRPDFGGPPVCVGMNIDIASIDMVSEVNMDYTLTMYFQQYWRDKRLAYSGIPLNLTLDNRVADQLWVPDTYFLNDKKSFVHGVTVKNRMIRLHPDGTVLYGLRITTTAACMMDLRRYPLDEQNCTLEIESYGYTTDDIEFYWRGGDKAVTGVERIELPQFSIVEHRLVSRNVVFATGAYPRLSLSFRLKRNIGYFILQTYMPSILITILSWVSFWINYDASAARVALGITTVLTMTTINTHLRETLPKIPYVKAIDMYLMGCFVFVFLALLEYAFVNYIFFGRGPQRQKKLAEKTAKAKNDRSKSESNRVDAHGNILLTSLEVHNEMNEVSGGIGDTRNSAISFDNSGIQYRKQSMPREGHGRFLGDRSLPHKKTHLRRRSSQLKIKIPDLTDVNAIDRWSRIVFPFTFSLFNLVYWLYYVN
α4β3δ GABAA receptors (extra synaptic), sequence (O14764 17-452 partner limits assumed): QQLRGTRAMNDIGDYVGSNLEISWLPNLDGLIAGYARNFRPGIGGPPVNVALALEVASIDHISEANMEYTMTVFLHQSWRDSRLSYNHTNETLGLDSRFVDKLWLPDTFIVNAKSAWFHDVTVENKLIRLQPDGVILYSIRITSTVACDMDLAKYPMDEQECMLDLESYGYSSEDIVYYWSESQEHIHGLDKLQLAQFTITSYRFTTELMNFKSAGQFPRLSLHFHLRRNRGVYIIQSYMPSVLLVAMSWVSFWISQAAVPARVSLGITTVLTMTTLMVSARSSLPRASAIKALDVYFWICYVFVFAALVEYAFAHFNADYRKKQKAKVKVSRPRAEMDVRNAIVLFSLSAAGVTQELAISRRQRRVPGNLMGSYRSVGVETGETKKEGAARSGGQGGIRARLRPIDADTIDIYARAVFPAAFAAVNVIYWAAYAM

Turning to `C[C@@]1(O)CC[C@@]2(C)[C@@H](CC[C@@H]3[C@@H]2CC[C@]2(C)[C@@H](C(=O)Cn4cc(C#N)cn4)CC[C@@H]32)C1` [CV-10155, 1-[2-[(3R,5S,8R,9S,10S,13S,14S,17S)-3-hydroxy-3,10,13-trimethyl-1,2,4,5,6,7,8,9,11,12,14,15,16,17-tetradecahydrocyclopenta[a]phenanthren-17-yl]-2-oxoethyl]pyrazole-4-carbonitrile], the “preferential potentiation of α4β3δ as compared to α1β2γ2 GABAA receptors” value in data set [1] is on record as “preferentially potentiate α4β3δ GABAA receptors”. Besides, in data set [2], the dose-limiting adverse events entry is recorded as “No dose-limiting adverse events”. Under setting [6], the AUCInf was found to be 2440 ng·h/mL; the AUCInf/D was 5602 kg·ng·h/mL/mg and 2929 kg·ng·h/mL/mg and 2273 kg·ng·h/mL/mg and 4084 kg·ng·h/mL/mg; the T1/2 came out at 12.5 h; the Tmax amounted to 1.13 h. Besides, under setting [7], the AUCInf was found to be 2612 ng·h/mL; the AUCInf/D is 2762 kg·ng·h/mL/mg and 2441 kg·ng·h/mL/mg and 3314 kg·ng·h/mL/mg and 2821 kg·ng·h/mL/mg; the Tmax was determined as 1.50 h. Also, under setting [8], the AUCInf/D is 4995 kg·ng·h/mL/mg and 3157 kg·ng·h/mL/mg and 1572 kg·ng·h/mL/mg and 2982 kg·ng·h/mL/mg; the T1/2 was found to be 12.3 h. For the same compound, the “Racc Cmax” value in data set [3] is listed as 1.78. In data set [4] (setting [9]), the “AE Back pain, #” value came out at 1; the “AE Bloating, #” value was found to be 1; the “AE Dizziness, #” value amounted to 1; the “AE Headache, #” value amounted to 2. Further, in data set [4] (60 mg, evening, fed state, N = 9 (two separate table lines)), the “AE Sleepiness, #” value is on record as 1. In data set [4] (setting [10]), the “AE Dizziness, #” value is given as 1; the “AE Feeling sleepy, #” value was determined as 1; the “AE Feeling tired, #” value was 2; the “AE Headache, #” value is 2. Besides, in data set [4] (setting [10]), the “AE Sleepiness, #” value came to 9 and the “AE Tiredness, #” value is given as 3. In addition, in data set [4] (humans, 60 mg dosed in the evening), the “tolerability profile compared to PRAX-114 and Sage-217” value is given as “favorable tolerability profile compared to PRAX-114”. Moreover, the “exposure levels compared with 30 mg doses of Sage-217” value in data set [4] (humans, 60 mg doses) was “higher exposure levels”. The AE result in data set [4] (humans, CV-10155 in the evening in a fed state, individual subjects) is listed as “Headache; also recorded: Somnolence; also recorded: Back pain; also recorded: Abdominal distension; also recorded: Dizziness”. The Severity entry in data set [4] (humans, evening, fed state, per AE of the same table row) is “Moderate and Mild”. Moreover, the “adverse effects interfering with sleeping” value in data set [4] (humans, oral, evening, fed subjects) is on record as “does not produce adverse effects that interfere with sleeping”.

Take `C[C@@]1(O)CC[C@H]2[C@H](CC[C@@H]3[C@@H]2CC[C@]2(C)[C@@H](C(=O)Cn4cc(C#N)cn4)CC[C@@H]32)C1` [Sage-217]: the “Doses tested in Forced swim test - Depression (* significantly efficacious dose)” value in the data set on Forced swim test is 1 - 3* mg/kg. Further, in data set [5] (20 mg (n-188)), the “Any AE, (%)” value is 50.0%; the “Diarrhea, (%)” value is 5.9%; the “Dizziness, (%)” value is given as 7.4%; the “Fatigue, (%)” value is recorded as 1.6%. For the same compound, in data set [5] (20 mg (n-188)), the “Headache, (%)” value is recorded as 11.2%; the “Nausea, (%)” value was 5.3%; the “Sedation, (%)” value is 5.9%; the “Somnolence, (%)” value was 5.9%. Besides, in data set [5] (30 mg (n-192)), the “Any AE, (%)” value is given as 54.2%; the “Diarrhea, (%)” value was 6.3%; the “Dizziness, (%)” value was 5.7%; the “Fatigue, (%)” value is listed as 6.8%. Besides, in data set [5] (30 mg (n-192)), the “Headache, (%)” value is given as 6.3%; the “Nausea, (%)” value is on record as 3.6%; the “Sedation, (%)” value is reported as 4.7%; the “Somnolence, (%)” value is 6.8%.
